# The supplement of paper PMC10307832
# Tests used:
# Test in all cases: relative viability (nuclei count vs DMSO), 5 days (fraction); higher = more cells survive
# [1] = compound: C[C@]1(O)C[C@@H](c2nc(-c3ccc4ccc(-c5ccccc5)nc4c3)c3c(N)nccn32)C1 [Linsitinib] + CCNC(=O)c1noc(-c2cc(C(C)C)c(O)cc2O)c1-c1ccc(CN2CCOCC2)cc1 [Luminespib] (partner 0.01 µM)
# Method in brief: (§1)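 Medians of duplicate plates are given as relative viability. That measure is the nuclei count in treated wells divided by the count in vehicle wells. Counts were taken on 4× images of lung cancer cell lines in 1536-well plates, 5 days after pin-tool dosing the day after seeding with one drug alone or a fixed anchor-drug dose plus five library-drug doses (not always all listed) in √10 steps.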
# [2] = compound: C[C@]1(O)C[C@@H](c2nc(-c3ccc4ccc(-c5ccccc5)nc4c3)c3c(N)nccn32)C1 [Linsitinib] + NC(=O)Nc1cc(-c2cccc(F)c2)sc1C(=O)N[C@H]1CCCNC1 [AZD7762] (partner 0.2 µM)
# Method in brief: as §1
# [3] = compound: Cc1ccc(C(=O)N(CCCN)[C@@H](c2nc3cc(Cl)ccc3c(=O)n2Cc2ccccc2)C(C)C)cc1 [Ispinesib] + Cc1nc(Nc2ncc(C(=O)Nc3c(C)cccc3Cl)s2)cc(N2CCN(CCO)CC2)n1 [Dasatinib] (partner 0.075 µM)
# Method in brief: as §1
# [4] = compound: Cc1ccc(C(=O)N(CCCN)[C@@H](c2nc3cc(Cl)ccc3c(=O)n2Cc2ccccc2)C(C)C)cc1 [Ispinesib] + O=C(CCCCCCC(=O)Nc1ccccc1)NO [Vorinostat] (partner 1 µM)
# Method in brief: as §1
Cell Line,relative viability ([1]; first compound 0.01 µM),relative viability ([1]; first compound 0.03162 µM),relative viability ([1]; first compound 0.1 µM),relative viability ([1]; first compound 0.3162 µM),relative viability ([1]; first compound 1 µM),relative viability ([2]; first compound 0.01 µM),relative viability ([2]; first compound 0.03162 µM),relative viability ([2]; first compound 0.1 µM),relative viability ([2]; first compound 0.3162 µM),relative viability ([2]; first compound 1 µM),relative viability ([3]; first compound 0.001 µM),relative viability ([3]; first compound 0.003162 µM),relative viability ([3]; first compound 0.01 µM),relative viability ([3]; first compound 0.03162 µM),relative viability ([3]; first compound 0.1 µM),relative viability ([4]; first compound 0.001 µM),relative viability ([4]; first compound 0.003162 µM),relative viability ([4]; first compound 0.01 µM),relative viability ([4]; first compound 0.03162 µM),relative viability ([4]; first compound 0.1 µM)
NCI-H522,1.55,1.18,1.18,0.961,1.2,0.771,0.958,1.09,0.654,0.612,0.723,1.11,1.05,0.634,0.401,0.824,0.897,0.803,0.592,0.351
NCI-H650,0.774,0.919,0.877,0.66,0.669,1.01,0.801,0.922,–,0.905,0.491,0.473,0.448,0.349,0.172,0.508,0.459,0.475,0.365,0.199
NCI-H460,0.044,0.0373,0.033,0.0397,0.0347,0.566,0.614,0.698,–,0.398,0.557,0.619,0.573,0.323,0.0386,1.37,1.03,1.1,0.237,0.107
NCI-H2085,0.36,0.425,0.379,0.402,0.407,0.916,0.837,1.04,0.896,0.939,0.228,0.225,0.242,0.261,0.206,0.773,0.762,0.864,0.594,0.429
EPLC-272H,0.23,0.438,–,–,0.725,0.186,0.22,0.221,–,0.334,0.407,0.354,0.32,0.172,0.182,0.351,0.635,0.322,0.128,0.341
201T,1.05,1.13,1.02,1.18,1.1,0.554,0.59,0.675,0.509,0.612,0.538,0.599,0.735,0.56,0.307,1,1.01,1.02,0.908,0.28
NCI-H3122,0.0915,0.1,0.0744,0.0902,0.0925,0.985,0.992,0.968,–,0.765,0.944,0.917,0.973,0.759,0.127,1,1.09,1.07,0.855,0.119
NCI-H838,0.411,0.211,0.278,–,0.235,0.933,0.85,0.903,0.713,0.77,0.325,0.335,0.29,0.242,0.182,0.738,0.726,0.739,0.625,0.238
NCI-H1755,0.41,0.244,0.419,0.327,0.469,0.454,0.421,0.531,0.657,0.363,0.391,0.453,0.387,0.352,0.237,0.726,0.789,0.937,0.636,0.419
HCC-15,0.218,0.296,0.271,–,0.34,1.07,1.15,1.16,0.839,1.11,0.711,0.662,0.604,0.371,0.21,0.861,0.976,0.968,0.852,0.344
NCI-H2087,0.167,0.169,0.132,0.15,0.142,1.15,1.23,1.38,1.34,1.13,0.998,0.841,0.963,0.39,0.117,0.963,0.45,0.937,0.995,0.141
LCLC-103H,1.06,0.965,0.918,0.813,0.838,0.785,0.721,0.84,0.9,0.634,0.553,0.506,0.602,0.302,0.244,0.827,0.86,0.845,0.515,0.352
LK-2,0.173,0.152,0.187,0.192,0.166,0.295,0.482,0.245,0.179,0.154,0.227,0.331,0.299,0.26,0.199,0.247,0.348,0.343,0.195,0.24
NCI-H2342,0.662,0.754,0.702,0.714,0.536,0.405,0.544,0.526,0.454,0.414,0.284,0.305,0.328,0.284,0.27,0.664,0.724,0.797,0.75,0.554
ChaGo-K-1,0.644,0.535,0.544,0.699,0.728,0.893,0.91,0.855,–,0.799,0.584,0.605,0.643,0.668,0.226,0.838,0.744,0.827,0.765,0.232
NCI-H1666,0.95,1.08,1.12,1.07,1.02,0.704,0.834,0.828,0.645,0.597,0.864,0.894,0.776,0.594,0.419,1.11,1.05,1.08,1.07,0.84
EKVX,0.844,0.842,0.87,0.688,0.684,–,0.662,0.717,0.707,0.631,0.601,0.59,0.429,0.605,0.439,0.741,0.78,0.693,0.623,0.561

Cell Line,relative viability ([1]; first compound 0.01 µM),relative viability ([1]; first compound 0.03162 µM),relative viability ([1]; first compound 0.1 µM),relative viability ([1]; first compound 0.3162 µM),relative viability ([1]; first compound 1 µM),relative viability ([2]; first compound 0.01 µM),relative viability ([2]; first compound 0.03162 µM),relative viability ([2]; first compound 0.1 µM),relative viability ([2]; first compound 0.3162 µM),relative viability ([2]; first compound 1 µM),relative viability ([3]; first compound 0.001 µM),relative viability ([3]; first compound 0.003162 µM),relative viability ([3]; first compound 0.01 µM),relative viability ([3]; first compound 0.03162 µM),relative viability ([3]; first compound 0.1 µM),relative viability ([4]; first compound 0.001 µM),relative viability ([4]; first compound 0.003162 µM),relative viability ([4]; first compound 0.01 µM),relative viability ([4]; first compound 0.03162 µM),relative viability ([4]; first compound 0.1 µM)
NCI-H322M,0.946,0.444,0.856,0.698,0.658,0.575,0.411,0.485,0.49,0.414,0.271,0.244,0.233,0.252,0.288,0.96,0.95,0.995,0.659,0.505
HARA,0.715,0.828,0.945,–,0.173,0.355,0.237,0.344,–,0.179,0.26,0.258,0.301,0.293,0.0741,0.519,0.567,0.528,0.477,0.389
NCI-H1437,1.1,1.12,1.22,1.1,1.19,1.15,1.16,1.11,0.964,1.1,0.45,0.512,0.395,0.35,0.166,0.967,0.837,0.922,0.878,0.219
BEN,0.411,0.503,0.3,–,0.383,0.563,0.771,0.617,0.742,0.677,0.36,0.371,0.307,0.248,0.141,0.538,0.676,0.642,0.478,0.374
LXF-289,0.759,0.669,0.729,–,0.544,1.04,1.04,1.13,0.731,1.04,0.308,0.215,0.197,0.209,0.0629,0.758,0.772,0.837,0.478,0.217
NCI-H358,0.365,0.367,0.299,0.333,0.194,0.668,0.473,0.563,0.366,0.321,0.162,0.144,0.163,0.131,0.0677,0.977,0.752,0.744,0.703,0.196
NCI-H1993,0.751,0.852,0.835,0.794,0.498,0.734,0.773,0.623,0.509,0.513,0.617,0.373,0.634,0.548,0.584,0.984,0.738,0.74,0.515,0.438
NCI-H727,0.323,0.207,0.346,0.268,0.288,0.39,0.503,0.346,0.363,0.376,0.536,0.221,0.434,0.472,0.388,1.24,1.31,–,1.05,1.06
LOU-NH91,0.357,0.355,0.299,0.244,0.298,0.763,0.701,0.742,0.693,0.58,0.591,0.608,0.592,0.519,0.206,0.91,1.04,0.939,0.247,0.236
NCI-H1975,0.24,0.263,0.281,0.302,0.127,0.697,0.673,0.685,0.685,0.562,0.443,0.43,0.425,0.158,0.114,0.738,0.766,0.798,0.586,0.279
PC-3 [JPC-3],0.716,0.69,0.764,0.669,0.712,0.784,0.758,0.846,0.495,0.597,1.11,1.06,1.14,0.868,0.578,0.776,0.977,0.794,0.498,0.435
NCI-H2126,0.883,0.841,0.912,0.838,0.522,0.972,0.997,1.05,0.871,0.887,0.671,0.658,0.768,0.566,0.413,0.754,0.867,0.932,0.789,0.289
LU99A,0.272,0.25,0.231,0.241,0.216,0.285,0.435,0.371,–,0.196,0.676,0.519,0.558,0.363,0.203,0.445,0.485,0.467,0.265,0.247
NCI-H23,0.218,0.207,0.211,0.219,0.203,0.239,0.205,0.215,0.254,0.23,0.857,1.02,0.885,0.653,0.188,0.542,0.619,0.647,0.419,0.21
PC-14,0.217,0.112,0.18,0.196,0.103,0.296,0.307,0.34,0.305,0.27,0.221,0.188,0.0739,0.0649,0.133,0.773,0.569,0.343,0.103,0.134
A-427,0.757,0.954,1.01,–,0.993,0.749,0.624,0.742,–,0.535,0.668,0.793,0.817,0.396,0.161,0.878,0.953,0.981,0.385,0.217
